# Results: patent EP4129284B1, “SERTACONAZOL FOR PROVIDING A SPORISTATIC AND/OR SPORICIDAL EFFECT” (Dr. Pfleger Arzneimittel GmbH, priority 2021, dated 2023)
# System: full skin models
# Format: cell-based, human
# Method: Additionally, the influence on the cell viability and the release of lactate dehydrogenase (LDH) was examined over the incubation time. Disruptions of the cell membranes can be measured by the release of the cytosolic enzyme LDH and be evaluated as a marker for cellular necrosis. As the biocompatibility of the material is determined by further cellular and molecular factors, the analysis of the cellular interleukin release allows the conclusion on e.g. pro-inflammatory effects of the substances, which would not be possible to be detected by sole cytotoxicity. Such interleukins are interleukins 1α, 6 or 8, which are involved in coordinating the cellular proliferation, cell migration and possible inflammatory processes. Such a method is described in, for example, Wiegand C, Hipler UC. Evaluation of biocompatibility and cytotoxicity using keratinocyte and fibroblast cultures. Skin Pharmacol Physiol 2009; 22:74-82; Wiegand C, Winter D, Hipler UC. Molecular-weight-dependent toxic effects of chitosans on the human keratinocyte cell line HaCaT. Skin Pharmacol Physiol. 2010;23(3):164-70.
# The spore suspensions and the solutions of sertaconazol, ciclopiroxolamin and terbinafin were prepared as in Example 1, wherein the respective test concentrations were obtained by diluting these solutions in ultrapure water (WFI; Fresenius Kabi) instead of SGB (Merck). Full skin models were produced as previously described [Reddersen K, Wiegand C, Elsner P, Hipler UC. Three-dimensional human skin model infected with Staphylococcus aureus as a tool for evaluation of bioactivity and biocompatibility of antiseptics. Int J Antimicrob Agents. 2019; 54(3):283-291; Wiegand C, Fink S, Beier O, Horn K, Pfuch A, Schimanski A, Grünler B, Hipler UC, Elsner P. Dose- and Time-Dependent Cellular Effects of Cold Atmospheric Pressure Plasma Evaluated in 3D Skin Models. Skin Pharmacol Physiol. 2016;29(5):257-265].Particularly, normal human dermal fibroblasts (NHDF; Lot 1060702.1, Promocell) and normal human epidermal keratinocytes (NHEK; Lot 9100102, Promocell) were used. Fibroblasts were cultivated in Dulbecco's modified eagle medium (DMEM; Lot MC09049P, Amimed), with 2% foetal calf serum (Lot P160509; PAN), 5 ng/mL hFGF (Lot 0329586; novoprotein) and 5 µg/ml Insulin (Lot H07443P, AMIMED) at 37°C and a 5% CO2 atmosphere. Keratinocytes were cultivated in keratinocyte medium (KBM, Lot 446M063, Promocell) at 37°C and a 5% CO2 atmosphere. The cultivation was performed over 7 days in 75 cm^2 cell culture flasks (Greiner Bio-One). The cells were subsequently detached with Trypsin-EDTA (Lot 2091326; Gibco) and dissolved in the respective medium. For producing the dermis equivalent, fibroblasts were cultivated in 12-well inserts (Greiner bio-one) with DMEM (Lot MC09049P, Amimed) + 10% foetal calf serum (Lot P160509, PAN) + 1% Gentamycin (Lot 2027100, Gibco) + 150 µg/ml ascorbic acid (Lot BCBS1081V, Sigma) for 3 weeks at […] and 5 % CO2. The medium was changed all 2-3 days. Before seeding the keratinocytes for producing the […], the medium surrounding the insert was completely removed and the dermis upper layer was coated with fibronectin (50 µg/mL; Lot 435P078, Promocell). After 30 min of incubation of the dermis equivalent with fibronectin, the seeding of the keratinocytes was performed with 2 × 10^5 cells / insert in KBM (Lot 446M063, Promocell) + 5% FKS (Lot P160509, PAN) + 1% Gentamycin (Lot 2027100, Gibco). Subsequently, the skin models were incubated for 45 min in the incubator before the models were flooded with KBM + 5% FKS + 1% Gentamycin. The skin models were cultivated for 7 days by submersion in the medium with decreasing foetal calf serum concentration (5 %, 2 %, 0 %). The medium was changed all 2-3 days. After the cultivation by submersion, the skin models were further cultivated for 12 days at the air-medium interface (airlift cultivation). […]
smiles,measurement,value
CCCCCCCCCCCCOS(=O)(=O)[O-].[Na+] [SDS],cell viability,approximately 20%
